The record followed here is patent US5284837A, “Derivatives of purine, process for their preparation and a pharmaceutical preparation” (Medivir AB, priority 1988, dated 1994).

Usually inhibition stands for the relative decrease from the control value, in per cent. The bioavailability is dose-corrected exposure relative to a reference, in per cent.

Counter-ions that a name gives are not always drawn. Like-named read-outs stand apart in the source and are kept apart here.

Series [1] has as its system HIV (HTLV-IIIB) in H9 cells. The series is described as follows: Effect of compounds on HIV multiplication in H9 cells (Test I). The note with it: 6-7 days, read-out: Concentration (μM) for 50% inhibition (IC50) of human immuno deficiency virus multiplication in cell culture. Type of series: cell-based, human immunodeficiency virus (HTLV-IIIB). As for the experimental part: Materials and Methods: HIV Infection of H9 Cells H9 cells, 10^5 cells per well on a 24 well plate, suspended in 2 ml RPMI-medium containing 10% fetal calf serum, 100 μg/ml pencillin, 10 μg/ml streptomycin sulfate and 2 μg/ml polybrene are exposed to HIV (HTLV-IIIB) and different concentrations of the test compounds. The plates are incubated at 37° C. in 5% CO2 for 6-7 days. The contents in each well is then homogenized with a pipette and transferred to a centrifuge tube. After centrifugation for 10 min at 1500 rpm the supernatant is removed and the cell pellet is analyzed by fixing in methanol on glass plates. Human HIV positive serum diluted 1:80 or 1:160 is added and incubated for 30 min at 37° C. The pate is then washed with phosphate-buffered saline (PBS) containing Ca2+ and Mg2+. Sheep antihuman conjugate (FITC) is added and after a new incubation the plate is again washed with PBS. Contrast staining is done with Evans blue and after drying the frequency of HIV antigen containing cells is determined in a microscope.

A short description of series [2]: Cellular toxicity, inhibition of H9 cell multiplication (Test II). The note with it: human, H9 cells. Type of series: cell-based. How it is done: (§1) Test II--Cellular Toxicity
H9 cells, 2×10^7 cells per plate, are incubate in RPMI-1640 medium containing 10% fetal calf serum, 70 mg/l penicillin, 100 mg/l streptomycin and 10 mM hepes, in absence or presence of test compounds. The number of cells per plate is determined after 48 h. Cells incubated in the absence of test compounds then underwent two cell division cycles.
(§2) F5000 cells, which are human embryo cells, 1×10^5 cells per plate, are incubated in Eagle's minimal essential medium, supplemented with Earle's salts, non-essential amino acids, 10% fetal calf serum, 10 mM hepes, 70 mg/l penicillin and 100 mg/l streptomycin, in absence or presence of test compounds. The number of cells per plate is determined after 48 h. Cells incubated in the absence of test compounds underwent one cell division cycle.

Series [3] can be described thus: Cellular toxicity, inhibition of F5000 cell multiplication (Test II). Type of series: cell-based. The note with it: human, f5000 cells. How it is done: as §1, §2
The nature of series [4]: Oral bioavailability in monkey (Test III). Type of series: in vivo, cynomologous monkeys. As for the experimental part:
(§3) TEST III--ORAL BIOAVAILABILITY
(§4) Oral bioavailability was determined by dosing the animals (cynomologous monkeys and rats) intravenously and orally on separate occasions with the compounds. Blood samples were taken after appropriate intervals for determination of drug level in plasma. Appropriate pharmacokinetic calculations were then carried out based on plasma concentration against time relationship.

Series [5] in a line: Oral bioavailability in rat (Test III). The note with it: for plasma concentration of VSA 671 after VSA 671 has been given as 6-deoxy prodrug or ester: in words. In kind it is in vivo. As for the experimental part: as §3, §4
Where [6] appears, read: Human immunodeficiency virus 1, IIIB, H9, H9 cells.
[7] abbreviates: plasma AUC relative to AUC after intravenously given VSA 671, read-out: Oral bioavailability F of compound determined as VSA 671.

For `Nc1nc2c(ncn2CC(CO)CCO)c(=O)[nH]1` (racemic) [VSA 671, 9-[4-hydroxy-2-(hydroxymethyl)butyl]guanine], the IC50 in series [1] (setting [6]) lay in the range of 1 to 10 µM. The molecule further showed an inhibition at 48 h, 500 µM in series [2] (500 μM) of 55%. In series [3] (1000 μM), the inhibition at 48 h, 1000 µM came out at 55%. In addition, the bioavailability was determined as 10% in series [4] (setting [7]) and 11% in series [5] (setting [7]). Consider `Nc1nc2c(ncn2CC(CO)CCO)c(=O)[nH]1` (single isomer, unassigned; (+)) [VSB 648, (+)-9-[4-hydroxy-2(hydroxymethyl)butyl]-guanine], for which the IC50 in series [1] (H9 cells) is 1 to 5 µM. With `Nc1nc2c(ncn2CC(CO)CCO)c(=O)[nH]1` (single isomer, unassigned; (-)) [VSB 647, (-)-9-(4-Hydroxy-2-hydroxymethylbutyl)guanine], the IC50 in series [1] (H9 cells) lay within 0.1 to 7 µM. The inhibition at 48 h, 100 µM in series [2] (100 μM) came to 5%. As for `Nc1ncc2ncn(CC(CO)CCO)c2n1` (stereo not drawn) [VSB 212, 2-(2-Aminopurin-9yl)methyl butan-1,4-diol], in series [5], the “plasma concentration of VSA 671 after VSA 671 has been given as 6-deoxy prodrug or ester” value is “significantly increased”.

As for `Nc1ncnc2c1ncn2CC(CO)CCO` (stereo not drawn) [VSC 600, 9-(4-Hydroxy-2-hydroxymethylbutyl)adenine], the IC50 in series [1] (setting [6]) was 10 µM. This molecule gave an inhibition at 48 h, 200 µM in series [2] (200 μM) of 25%. The molecule also registered an inhibition at 48 h, 500 µM in series [3] (500 μM) of 25%.

Consider `CC(=O)OCCC(COC(C)=O)Cn1cnc2cnc(N)nc21` (stereo not drawn) [VSC 610, 2-(2-Aminopurin-9-yl)methylbutane-1,4-diol diacetate], for which the “plasma concentration of VSA 671 after VSA 671 has been given as ester of 6-deoxy prodrug” value in series [4] (in words) is listed as “significantly increased”. On to `CC(=O)OCCC(COC(C)=O)Cn1cnc2c(=O)[nH]c(N)nc21` (stereo not drawn) [VSC 640, 9-[4-acetoxy-2-(acetoxymethyl)butyl]guanine.HCl], for which the “plasma concentration of VSA 671 after VSA 671 has been given as 6-deoxy prodrug or ester” value in series [5] was “significantly increased”. Take `CCC(=O)OCCC(COC(=O)CC)Cn1cnc2c(=O)[nH]c(N)nc21` (stereo not drawn) [VSC 641, 9-[4-propionoxy-2-(propionoxymethyl)butyl]guanine.HCl]: the “plasma concentration of VSA 671 after VSA 671 has been given as 6-deoxy prodrug or ester” value in series [5] was “significantly increased”.
